Measured values: ChEMBL document CHEMBL4308875, “Synthesis, antituberculosis studies and biological evaluation of new quinoline derivatives carrying 1,2,4-oxadiazole moiety” (Bioorg Med Chem Lett, 2019)
≈ marks a conversion by molar mass, not a printed value.

Legend:
[1] = system: Mycobacterium tuberculosis; test: Antitubercular activity against Mycobacterium tuberculosis H37Rv after 15 days by turbidometric method; assay type: functional; conditions: 360 h
[2] = system: HepG2; test: Cytotoxicity against human HepG2 cells after 24 hrs by MTT assay; assay type: cell-based; conditions: HepG2, 24 h
[3] = system: Pseudomonas aeruginosa; test: Antibacterial activity against Pseudomonas aeruginosa ATCC 15442 after 15 days by turbidometric method; assay type: functional; conditions: ATCC 15442, 360 h
[4] = system: Acinetobacter baumannii; test: Antibacterial activity against Acinetobacter baumannii ATCC 19606 after 15 days by turbidometric method; assay type: functional; conditions: ATCC 19606 = CIP 70.34 = JCM 6841
[5] = system: Staphylococcus aureus; test: Antibacterial activity against Staphylococcus aureus ATCC 33591 after 15 days by turbidometric method; assay type: functional; conditions: ATCC 33591, 360 h
[6] = system: Enterococcus faecium; test: Antibacterial activity against Enterococcus faecium ATCC 51559 after 15 days by turbidometric method; assay type: functional; conditions: ATCC 51559, 360 h
[7] = system: Escherichia coli; test: Antibacterial activity against Escherichia coli ATCC 25922 after 15 days by turbidometric method; assay type: functional; conditions: ATCC 25922, 360 h
[8] = system: Klebsiella pneumoniae; test: Antibacterial activity against Klebsiella pneumoniae ATCC 700603 after 15 days by turbidometric method; assay type: functional; conditions: Klebsiella pneumoniae, 700603, 360 h
[9] = system: Mycobacterium tuberculosis; test: Bacteriostatic activity against Mycobacterium tuberculosis H37Rv assessed as colony forming units at 0.002 to 64 ug/ml measured day 21 post dose by time kill assay (reference value: 0 log10CFU/ml); assay type: functional
[10] = system: Mycobacterium tuberculosis; test: Bacteriostatic activity against Mycobacterium tuberculosis H37Rv assessed as colony forming units at 0.002 to 64 ug/ml measured day 3 post dose by time kill assay (reference value: 0 log10CFU/ml); assay type: functional
[11] = system: Mycobacterium tuberculosis; test: Bacteriostatic activity against Mycobacterium tuberculosis H37Rv assessed as colony forming units at 0.002 to 64 ug/ml measured day 14 post dose by time kill assay (reference value: 0 log10CFU/ml); assay type: functional
[12] = system: Mycobacterium tuberculosis; test: Bacteriostatic activity against Mycobacterium tuberculosis H37Rv assessed as colony forming units at 0.002 to 64 ug/ml measured day 7 post dose by time kill assay (reference value: 0 log10CFU/ml); assay type: functional

## c1cc(-c2ccc3c(N4CCN(Cc5noc(C6CCCC6)n5)CC4)ccnc3c2)ccn1
[1]
  MIC: 2 µg/mL (≈ 4.54 µM)

## COc1cc(OC)cc(-c2nc(CN3CCN(c4ccnc5cc(-c6cc(F)cc(F)c6)ccc45)CC3)no2)c1
[1]
  MIC: 256 µg/mL (≈ 471 µM)

## Fc1cc(F)cc(-c2ccc3c(N4CCN(Cc5noc(C6CCCC6)n5)CC4)ccnc3c2)c1
[1]
  MIC: 128 µg/mL (≈ 269 µM)

## Fc1cc(F)cc(-c2nc(CN3CCN(c4ccnc5cc(-c6ccncc6)ccc45)CC3)no2)c1
[1]
  MIC: 16 µg/mL (≈ 33 µM)

## Cc1cccc(-c2nc(CN3CCN(c4ccnc5cc(-c6cc(F)cc(F)c6)ccc45)CC3)no2)c1C
[1]
  MIC: 32 µg/mL (≈ 62.6 µM)

## Fc1cc(F)cc(-c2ccc3c(N4CCN(Cc5noc(-c6cc(F)cc(F)c6)n5)CC4)ccnc3c2)c1
[1]
  MIC: 64 µg/mL (≈ 123 µM)

## N#Cc1cccc(-c2nc(CN3CCN(c4ccnc5cc(-c6ccncc6)ccc45)CC3)no2)c1
[1]
  MIC: 32 µg/mL (≈ 67.6 µM)

## Cc1cccc(-c2nc(CN3CCN(c4ccnc5cc(Cl)ccc45)CC3)no2)c1C
[1]
  MIC: 64 µg/mL (≈ 147 µM)

## COc1ccc(CCN2CCC(Nc3nc4ccccc4n3Cc3ccc(F)cc3)CC2)cc1 [ASTEMIZOLE]
[2]
  IC50: 7.97 µM

## O=C(O)c1cn(C2CC2)c2cc(N3CCNCC3)c(F)cc2c1=O [CIPROFLOXACIN]
[3]
  MIC: < 1 µg/mL
[4]
  MIC: < 1 µg/mL
[5]
  MIC: < 1 µg/mL
[6]
  MIC: 8 µg/mL (≈ 24.1 µM)
[7]
  MIC: 0.007 µg/mL (≈ 0.0211 µM)
[8]
  MIC: < 1 µg/mL

## NNC(=O)c1ccncc1 [ISONIAZID]
[1]
  MIC: 0.015 µg/mL (≈ 0.109 µM)

## CO[C@H]1/C=C/O[C@@]2(C)Oc3c(C)c(O)c4c(O)c(c(/C=N/N5CCN(C)CC5)c(O)c4c3C2=O)NC(=O)/C(C)=C\C=C\[C@H](C)[C@H](O)[C@@H](C)[C@@H](O)[C@@H](C)[C@H](OC(C)=O)[C@@H]1C [RIFAMPIN]
[9]
  Emax: 6.3 log10CFU/ml
[10]
  Emax: 4.2 log10CFU/ml
[11]
  Emax: 6.2 log10CFU/ml
[1]
  MIC: 0.03 µg/mL (≈ 0.0365 µM)
[12]
  Emax: 6.2 log10CFU/ml

## CN[C@H](CC(C)C)C(=O)N[C@H]1C(=O)N[C@@H](CC(N)=O)C(=O)N[C@H]2C(=O)N[C@H]3C(=O)N[C@H](C(=O)N[C@H](C(=O)O)c4cc(O)cc(O)c4-c4cc3ccc4O)[C@H](O)c3ccc(c(Cl)c3)Oc3cc2cc(c3O[C@@H]2O[C@H](CO)[C@@H](O)[C@H](O)[C@H]2O[C@H]2C[C@](C)(N)[C@H](O)[C@H](C)O2)Oc2ccc(cc2Cl)[C@H]1O [VANCOMYCIN]
[3]
  MIC: 512 µg/mL (≈ 353 µM)
[4]
  MIC: 256 µg/mL (≈ 177 µM)
[6]
  MIC: < 1 µg/mL
[7]
  MIC: > 512 µg/mL
[8]
  MIC: 512 µg/mL (≈ 353 µM)
